# Measurements as given in article PMC4552316 (Nature chemical biology, 2011).
# Experiments:
# [1] = biological target: T1, human GMPR type 2 (hGMPR2) (Homo sapiens, UniProt Q9P2T1); assay: X-ray crystal structure of E•IMP•NADPH, […] Å; type: binding
# T1 sequence (Q9P2T1 1-348): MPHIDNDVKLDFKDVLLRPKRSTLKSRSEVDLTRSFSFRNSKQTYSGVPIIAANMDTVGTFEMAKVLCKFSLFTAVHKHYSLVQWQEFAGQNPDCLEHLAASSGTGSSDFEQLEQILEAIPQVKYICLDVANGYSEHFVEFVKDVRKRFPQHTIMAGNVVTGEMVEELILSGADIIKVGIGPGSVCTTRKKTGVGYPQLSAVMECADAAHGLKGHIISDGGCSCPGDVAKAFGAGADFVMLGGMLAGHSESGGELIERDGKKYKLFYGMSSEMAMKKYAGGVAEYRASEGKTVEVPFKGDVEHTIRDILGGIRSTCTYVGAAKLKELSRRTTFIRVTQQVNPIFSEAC
# [2] = biological target: E. coli GMPR (EcGMPR), GMP reductase (Escherichia coli, UniProt P60560); assay: spectrophotometric enzyme inhibition assay; type: biochemical
# [3] = tested on: CC(=O)C1=CN([C@@H]2O[C@H](COP(=O)(O)OP(=O)(O)OC[C@H]3O[C@@H](n4cnc5c(N)ncnc54)[C@H](OP(=O)(O)O)[C@@H]3O)[C@@H](O)[C@H]2O)C=CC1; assay: purified protein; settings: 2-Cl-IMP (co-substrate); varied: cofactor
# [4] = tested on: O=c1[nH]c(Cl)nc2c1ncn2[C@@H]1O[C@H](COP(=O)(O)O)[C@@H](O)[C@H]1O; assay: purified protein; settings: NADPH or NADP+ catalytic Cys186 (E-XMP* intermediate; none with C186A)
# crystal structure = biological target: the molecule itself; assay: crystal structure
# Sequence of E. coli GMPR (EcGMPR), GMP reductase (P60560 whole entry): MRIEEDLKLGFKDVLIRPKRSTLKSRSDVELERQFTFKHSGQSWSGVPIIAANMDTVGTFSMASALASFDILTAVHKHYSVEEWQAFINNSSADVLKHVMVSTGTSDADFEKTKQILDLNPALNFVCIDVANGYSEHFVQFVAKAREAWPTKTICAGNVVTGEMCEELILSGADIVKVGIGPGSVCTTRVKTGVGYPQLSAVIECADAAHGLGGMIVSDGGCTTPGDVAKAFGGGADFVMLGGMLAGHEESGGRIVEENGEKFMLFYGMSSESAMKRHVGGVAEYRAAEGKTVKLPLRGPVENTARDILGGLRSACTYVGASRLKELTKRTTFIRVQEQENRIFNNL
molecule,measurement,setting,value
NC(=O)C1=CN([C@@H]2O[C@H](COP(=O)(O)OP(=O)(O)OC[C@H]3O[C@@H](n4cnc5c(N)ncnc54)[C@H](OP(=O)(O)O)[C@@H]3O)[C@@H](O)[C@H]2O)C=CC1 [NADPH],"X-ray crystal structure of E•IMP•NADPH, 1.7 Å",[1],"NADPH was found in two conformations in the seven monomers, an ""in"" conformation and an ""out"" conformation"
NC(=O)c1ncn([C@@H]2O[C@H](COP(=O)(O)O)[C@@H](O)[C@H]2O)n1 [Ribavirin monophosphate],Ki,[2],98 ± 25 µM
NC(=O)c1ncn([C@@H]2O[C@H](COP(=O)(O)O)[C@@H](O)[C@H]2O)c1O [mizoribine monophosphate],Ki,[2],0.015 ± 0.003 µM
"E. coli GMPR (EcGMPR), GMP reductase (Escherichia coli K-12)",Km,[3],11.0 ± 2.0 µM
same,Km,[4],7.8 ± 1.1 µM
human GMP reductase type 2 (enzyme) LDFKDVLLRPKRSTLKSRSEVDLTRSFSFRNSKQTYSGVPIIAANMDTVGTFEMAKVLCKFSLFTAVHKHYSLVQWQEFAGQNPDCLEHLAASSGTGSSDFEQLEQILEAIPQVKYICLDVANGYSEHFVEFVKDVRKRFPQHTIMAGNVVTGEMVEELILSGADIIKVGIGPGSVCTTRKKTGVGYPQLSAVMECADAAHGLKGHIISDGGCSCPGDVAKAFGAGADFVMLGGMLAGHSESGGELIERDGKKYKLFYGMSSEMAMKKYAGGVAEYRASEGKTVEVPFKGDVEHTIRDILGGIRSTCTYVGAAKLKELSRRTTFIRVTQQVN,stoichiometry N,crystal structure,4
